From US8703106B2, “Chlorine dioxide treatment for biological tissue” (priority 2009, dated 2014) come the findings set out here.

Molecules are shown by their SMILES. Some results are limits rather than exact numbers.

In one experiment the test system is bacteria in wounds. The experiment can be described thus: Pig wound model, chlorine dioxide with sonication (Example 5). It counts as in vivo. The note with it: 400 ppm solution, 8 x 15 min, plus three 4 min sonications at about 20 kHz, 40% duty cycle. On the procedure: An experiment was performed to assess the efficacy of a combination therapy of chlorine dioxide administration and sonication on bacterial levels in wounds. The animal model was a pig. Sixteen wounds were introduced and inoculated with bacteria as described in Example 6. On Day 2, treatment was administered. There were control wounds that were not treated with either chlorine dioxide or ultrasound. Test wounds were treated with ultrasonic energy for 4 minutes, using a frequency of about 20 kHz, a 40% duty cycle and a range of power intensities up to 3.5 W/cm^2; each test wound received a total of three sonication treatments. Test wounds were treated with a 400 ppm chlorine dioxide solution applied to each wound in 8 separate, contiguous applications of 15 minutes duration each (total of 120 minutes of exposure to 400 ppm chlorine dioxide) and each application used a fresh specimen of the solution. Each treated wound received a total of three×4 minute sonication over the course of the 2 hours of chlorine dioxide treatment.
Wounds were biopsied after treatment as described in Example 4.

The subject of another experiment is total bacteria in wounds. Description: Pig infected wound model, delivery methods (Example 4). Format: in vivo. Conditions: Day 2, 400 ppm chlorine dioxide over two hours, versus moist controls. An excerpt:
(§1) The test animal was a pig (n=1). Pigs are commonly used as models for wound healing in part because pig skin shares many characteristics with human skin. The porcine model is considered to be an excellent tool for the evaluation of candidate agents intended for use in human wounds.
(§2) On Day 0, the pig was anesthetized and sixteen […] full-thickness wounds (eight per side) were created using a custom designed 2-cm trephine. Each wound was 2-cm in diameter. An epinephrine solution (1:10,000 dilution) was applied to the wounds on gauze sponges until hemostasis was complete (approximately 10 minutes). Each wound was then infected with a bacterial inoculum.
(§3) Three different bacteria, Pseudomonas aeruginosa, Fusobacterium sp., and coagulase-negative Staphylococci (CNS), were cultured and used to prepare inoculums for the wounds. On the morning of surgery, the bacterial cultures were washed with sterile saline and resuspended in saline to a final density of approximately 10^7 CFU/mL. This bacterial suspension was used to inoculate each wound.
(§4) Wounds were dressed with sterile Telfa gauze, and the infections allowed to mature to establish a bacterial biofilm condition. Telfa dressings were moistened with saline: the excess saline was removed by squeezing the Telfa dressings. The dressing was then secured in place with Transpore tape (3M, St. Paul, Minn.), As a secondary dressing, a blue absorbent pad was used to cover all of the wounds. The absorbent layer of the blue pad was placed against the skin for the first few days. If wounds looked too dry, the blue pad was changed with the occlusive side against the skin. A layer of a layer of elastic bandage was wrapped over the blue pad to prevent movement of the dressings underneath. All wound dressing were changed on Day 1.
(§5) On Day 2, wounds were treated with a chlorine dioxide composition using different delivery methods. In brief, wounds A2-A4 were treated with continuous irrigation. Treatment for wounds B2-B4 and C2-C4 was multiple, substantially contiguous episodes of contact with a substantially non-cytotoxic chlorine dioxide gel composition. Wounds D2-D4 were treated with intermittent irrigation using a manual irrigation device. A1, B1 and D1 were controls and were not treated with chlorine dioxide. C1 was manually treated with a chlorine dioxide solution.
(§6) Wounds A2-A4: Each wound was individually covered with an irrigation device, each having an inlet, port to supply a chlorine dioxide solution and an outlet port for egress of the chlorine, dioxide solution. […]
(§7) The pump was activated to achieve an initial flow rate of approximately 80-82 ml mm through each of the three irrigation chambers. Chlorine dioxide concentrations were measured at the outlets using a UV spectrophotometer. […]

The subject of the next experiment is Pseudomonas in wounds. The description is as above. Conditions: Day 2, 400 ppm chlorine dioxide over two hours, versus moist controls. Format: in vivo.
Description: as §1, §2, §3, §4, §5, §6, §7

Experiment [1] has as its system coagulase-negative Staphylococci in wounds. The description is as above. Format: in vivo.
Description: as §1, §2, §3, §4, §5, §6, §7

Another experiment has as its system MRSA biofilm. Description: Biofilm kill in protein-rich (FBS) environment (Example 3). It counts as cell-based, Staphylococcus aureus. The note with it: for Log Reduction in Organism Count: MRSA. On the procedure: Chlorine dioxide efficacy against biofilm in protein-rich environment A series of experiments were conducted to determine the effect of FBS on the kill of PA. MRSA and mixture PA/MRSA biofilms. Biofilms were grown as described in Example 1, Disks were immersed in 25 ml of FBS solution at double the target FBS concentration, and to that was added 25 ml of chlorine dioxide solution at double the target chlorine dioxide concentration. After the desired contact time, disks were removed from the treatment solutions, neutralized, and plated as described above.
Dosage is given both as the nominal dose based upon the initial chlorine dioxide concentration, and the actual dosage as estimated from the initial chlorine dioxide concentration and the decay relationships described above.
Columns 3-6 are measured data; columns 7-11 are calculated data. For K2 having a positive sign (such as Samples 20-21), it was assumed that there was insufficient FBS present to cause a material loss of chlorine dioxide. Therefore, for such samples, it was assumed that chlorine dioxide was unchanged over the time of the experiment FIG. 4 is a graph of the results.

As to `[O][Cl+][O-]` [ClO2, chlorine dioxide], in the experiment with bacteria in wounds (as a function of power intensity up to 3.5 W/cm^2), the “bacterial counts in test wounds” value is recorded as “decrease significantly (multiple log reductions)”. For the same compound, the “bacterial kill in test wounds” value in the experiment with bacteria in wounds (at 3.5 W/cm^2) was “substantially complete log kill”. Further, the total bacteria reduction in the experiment with total bacteria in wounds is reported as 1-2 logs. In addition, the “reduction of Pseudomonas” value in the experiment with Pseudomonas in wounds was not below 3 logs. Moreover, in experiment [1] (pig wounds, improved irrigation methods and gel formulation), the “levels of Staphylococcus aureus” value is listed as “moderately lowered”. Besides, the “reduction of coagulase-negative Staph” value in experiment [1] (pig, Day 2, 400 ppm chlorine dioxide over two hours, versus moist controls) was 1-2 logs. For the same compound, the “corrected dose rate resulting in complete kill” value in the experiment with MRSA biofilm (MRSA biofilm, with FBS) is listed as not below 2000 ppm-rain. Also, the “Log Reduction in Organism Count” value is given as 4.7 log in the experiment with MRSA biofilm (Sample 22, FBS 131 mg/mg ClO2, 15.0 min, initial 191 ppm, nominal 2865, corrected 2236 ppm-min); 4.7 log with MRSA biofilm (Sample 23, FBS 131 mg/mg ClO2, 40.0 min, initial 191 ppm, nominal 7640, corrected 5559 ppm-min); 4.7 log in the experiment with MRSA biofilm (Sample 24, FBS 104 mg/mg ClO2, 15.0 min, initial 240 ppm, nominal and corrected 3600 ppm-min); 4.7 log with MRSA biofilm (Sample 25, FBS 104 mg/mg ClO2, 30.0 min, initial 240 ppm, nominal and corrected 7200 ppm-min); 4.7 log in the experiment with MRSA biofilm (Sample 26, FBS 104 mg/mg ClO2, 60.0 min, initial 240 ppm, nominal and corrected 14400 ppm-min).
